Results from patent US20240279202A1 (NURIX THERAPEUTICS, INC., priority 2021, published 2024).

Molecular target: T1, ITK (Homo sapiens, UniProt Q08881)
T1 sequence (Q08881 1-620): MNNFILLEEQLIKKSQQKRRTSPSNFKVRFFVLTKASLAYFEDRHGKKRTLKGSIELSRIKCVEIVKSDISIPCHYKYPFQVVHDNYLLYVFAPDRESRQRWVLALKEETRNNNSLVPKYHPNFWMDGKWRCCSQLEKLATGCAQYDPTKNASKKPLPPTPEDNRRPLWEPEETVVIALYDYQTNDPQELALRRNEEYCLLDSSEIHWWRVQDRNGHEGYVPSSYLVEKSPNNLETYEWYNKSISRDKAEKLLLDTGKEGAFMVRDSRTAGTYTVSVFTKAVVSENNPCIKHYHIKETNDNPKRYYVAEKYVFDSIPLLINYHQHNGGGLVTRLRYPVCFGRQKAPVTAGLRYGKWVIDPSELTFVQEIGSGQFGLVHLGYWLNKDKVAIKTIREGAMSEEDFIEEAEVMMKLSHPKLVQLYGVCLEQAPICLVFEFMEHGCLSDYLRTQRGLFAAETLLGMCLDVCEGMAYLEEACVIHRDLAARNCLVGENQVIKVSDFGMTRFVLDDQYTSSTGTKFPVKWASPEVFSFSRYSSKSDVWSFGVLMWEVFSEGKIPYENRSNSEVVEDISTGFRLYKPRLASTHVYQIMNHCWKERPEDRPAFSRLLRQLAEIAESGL
Experiment: ITK degradation HiBiT assay
Format: cell-based
Parameters: expressed in transfected cells; host or cells: Molt4 (ATCC CRL-1552), monoclonal clone 1C10, engineered to carry the HiBiT tag
Settings: 4 hrs; for DC50: C-terminal HiBiT-tagged Molt4 cells; for Dmax: MOLT-4, C-terminal HiBiT-tagged Molt4 cells
In short: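 C-terminal HiBiT-tagged Molt4 cells (clone 1C10) treated 4 h at 32° C with an 11-point, 5-fold compound dilution series (0.5% DMSO). HiBiT lytic detection with LgBiT then luminescence read; % ITK remaining versus concentration fit by four-parameter variable-slope model to give DC50 and Dmax.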

Row | Structure (SMILES) | DC50 [nM] | Dmax [%]
1 | C[C@@H]1CN(CC2CCN(c3ccc(C4CCC(=O)NC4=O)cn3)CC2)CCN1C(=O)c1ccc2cc(-c3n[nH]c4c3CCC(C)(C)C4)[nH]c2c1 (stereo partly drawn) [Compound 132, 3-(6-(4-(((R)-4-(2-(6,6-dimethyl-4,5,6,7-tetrahydro-1H-indazol-3-yl)-1H-indole-6-carbonyl)-3-methylpiperazin-1-yl)methyl)piperidin-1-yl)pyridin-3-yl)piperidine-2,6-dione] | 7 | 82
2 | CC1(C)CCc2c(-c3cc4ccc(C(=O)N5CCN(CC6CCN(c7ccc(C8CCC(=O)NC8=O)cn7)CC6)C(C)(C)C5)cc4[nH]3)n[nH]c2C1 (centres unmarked) [Compound 133, 3-(6-(4-((4-(2-(6,6-dimethyl-4,5,6,7-tetrahydro-1H-indazol-3-yl)-1H-indole-6-carbonyl)-2,2-dimethylpiperazin-1-yl)methyl)piperidin-1-yl)pyridin-3-yl)piperidine-2,6-dione] | 1.6 | 86
3 | C[C@@]12Cc3[nH]nc(-c4cc5ccc(C(=O)N6CCN(CC7CCN(c8ccc(C9CCC(=O)NC9=O)cc8)CC7)CC6)cc5[nH]4)c3C[C@@H]1C2(F)F (stereo partly drawn) [Compound 135, 3-(4-(4-((4-(2-((4aS,5aR)-5,5-difluoro-5a-methyl-1,4,4a,5,5a,6-hexahydrocyclopropa[f]indazol-3-yl)-1H-indole-6-carbonyl)piperazin-1-yl)methyl)piperidin-1-yl)phenyl)piperidine-2,6-dione] | < 0.01 | 85
4 | CC1(C)CCc2c(-c3cc4cc(F)c(C(=O)N5CCN(CC6CCN(c7ccc(C8CCC(=O)NC8=O)cn7)CC6)CC5)cc4[nH]3)n[nH]c2C1 (centres unmarked) [Compound 136, 3-(6-(4-((4-(2-(6,6-dimethyl-4,5,6,7-tetrahydro-1H-indazol-3-yl)-5-fluoro-1H-indole-6-carbonyl)piperazin-1-yl)methyl)piperidin-1-yl)pyridin-3-yl)piperidine-2,6-dione] | 0.45 | 80
5 | CC1(C)CCc2c(-c3cc4cc(F)c(C(=O)N5CCN(CC6CCN(c7ccc(C8CCC(=O)NC8=O)cc7)CC6)CC5)cc4[nH]3)n[nH]c2C1 (centres unmarked) [Compound 137, 3-(4-(4-((4-(2-(6,6-dimethyl-4,5,6,7-tetrahydro-1H-indazol-3-yl)-5-fluoro-1H-indole-6-carbonyl)piperazin-1-yl)methyl)piperidin-1-yl)phenyl)piperidine-2,6-dione] | 4.4 | 81
6 | C[C@@]12Cc3[nH]nc(-c4cc5cc(F)c(C(=O)N6CCN(CC7CCN(c8ccc(C9CCC(=O)NC9=O)cc8)CC7)CC6)cc5[nH]4)c3C[C@@H]1C2(F)F (stereo partly drawn) [Compound 138, 3-(4-(4-((4-(2-((4aS,5aR)-5,5-difluoro-5a-methyl-1,4,4a,5,5a,6-hexahydrocyclopropa[f]indazol-3-yl)-5-fluoro-1H-indole-6-carbonyl)piperazin-1-yl)methyl)piperidin-1-yl)phenyl)piperidine-2,6-dione] | 0.076 | 83
7 | C[C@@]12Cc3[nH]nc(-c4cc5ccc(C(=O)N6CCN(CC7CCN(c8ccc(C(=O)N[C@H]9CCC(=O)NC9=O)nc8)CC7)CC6)cc5[nH]4)c3C[C@@H]1C2(F)F [Compound 139, 5-(4-((4-(2-((4aS,5aR)-5,5-difluoro-5a-methyl-1,4,4a,5,5a,6-hexahydrocyclopropa[f]indazol-3-yl)-1H-indole-6-carbonyl)piperazin-1-yl)methyl)piperidin-1-yl)-N—((S)-2,6-dioxopiperidin-3-yl)picolinamide] | 0.8 | 81
8 | COC[C@@]1(C)CCc2c(-c3cc4ccc(C(=O)N5CCN(CC6CCN(c7ccc(C8CCC(=O)NC8=O)cc7)CC6)CC5)cc4[nH]3)n[nH]c2C1 (some centres unmarked) [Compound 140] | – | 84
9 | C[C@@]12Cc3[nH]nc(-c4cc5cc(C(=O)N6CCN(CC7(F)CCN(c8ccc(C9CCC(=O)NC9=O)cc8)CC7)CC6)ccc5[nH]4)c3C[C@@H]1C2(F)F (some centres unmarked) [Compound 141] | – | 86
10 | C[C@@]12Cc3[nH]nc(-c4cc5cc(C(=O)N6CCN(CC7CCN(c8ccc(C(=O)N[C@H]9CCC(=O)NC9=O)nc8)CC7)CC6)ccc5[nH]4)c3C[C@@H]1C2(F)F [Compound 142] | – | 80
11 | C[C@@]12Cc3[nH]nc(-c4cc5cc(C(=O)N6CCN(C[C@@H]7CCN(c8ccc(C9CCC(=O)NC9=O)cc8)C7)CC6)ccc5[nH]4)c3C[C@@H]1C2(F)F (some centres unmarked) [Compound 143] | – | 81
12 | C[C@@]12Cc3[nH]nc(-c4cc5cc(F)c(C(=O)N6CCN(CC7CCN(c8ccc(C(=O)N[C@H]9CCC(=O)NC9=O)nc8)CC7)CC6)cc5[nH]4)c3C[C@@H]1C2(F)F [Compound 144] | – | 78
13 | C[C@@]12Cc3[nH]nc(-c4cc5cc(F)c(C(=O)N6CCN(C[C@H]7CCN(c8ccc(C9CCC(=O)NC9=O)cc8)C7)CC6)cc5[nH]4)c3C[C@@H]1C2(F)F (some centres unmarked) [Compound 145] | – | 75
14 | C[C@@]12Cc3[nH]nc(-c4cc5cc(F)c(C(=O)N6CCN(C[C@@H]7CCN(c8ccc(C9CCC(=O)NC9=O)cc8)C7)CC6)cc5[nH]4)c3C[C@@H]1C2(F)F (some centres unmarked) [Compound 146] | – | 73

Next, values leading:

Row | DC50 [nM] | Dmax [%] | Structure (SMILES)
15 | – | 81 | C[C@@]12Cc3[nH]nc(-c4cc5cc(C(=O)N6CCN(C[C@H]7CCN(c8ccc(C9CCC(=O)NC9=O)cc8)C7)CC6)ccc5[nH]4)c3C[C@@H]1C2(F)F (some centres unmarked) [Compound 147]
16 | – | 84 | C[C@@H]1CN(C(=O)c2ccc3cc(-c4n[nH]c5c4CCC(C)(C)C5)[nH]c3c2)CCN1CC1CCN(c2ccc(C3CCC(=O)NC3=O)cc2)CC1 (some centres unmarked) [Compound 156]
17 | – | 84 | C[C@@H]1CN(C(=O)c2ccc3cc(-c4n[nH]c5c4CCC(C)(C)C5)[nH]c3c2)C[C@H](C)N1CC1CCN(c2ccc(C3CCC(=O)NC3=O)cc2)CC1 (some centres unmarked) [Compound 157]
18 | – | 88 | C[C@@H]1CN(C(=O)c2ccc3cc(-c4n[nH]c5c4C[C@@H]4C(F)(F)[C@]4(C)C5)[nH]c3c2)C[C@H](C)N1CC1CCN(c2ccc(C3CCC(=O)NC3=O)cc2)CC1 (some centres unmarked) [Compound 158]
19 | – | 84 | C[C@@H]1CN(C(=O)c2ccc3cc(-c4n[nH]c5c4C[C@@H]4C(F)(F)[C@]4(C)C5)[nH]c3c2)CCN1CC1CCN(c2ccc(C3CCC(=O)NC3=O)cc2)CC1 (some centres unmarked) [Compound 159]
20 | – | 83 | C[C@@H]1CN(C(=O)c2ccc3cc(-c4n[nH]c5c4C[C@@H]4C(F)(F)[C@]4(C)C5)[nH]c3c2)CCN1CC1CCN(c2ccc(C3CCC(=O)NC3=O)c(F)c2)CC1 (some centres unmarked) [Compound 160]
21 | – | 85 | C[C@@H]1CN(C(=O)c2ccc3cc(-c4n[nH]c5c4C[C@@H]4C(F)(F)[C@]4(C)C5)[nH]c3c2)CCN1CC1CCN(c2ccc(C3CCC(=O)NC3=O)cc2F)CC1 (some centres unmarked) [Compound 161]
22 | – | 75 | C[C@@]12Cc3[nH]nc(C(=O)Nc4cnn(CC5CCN(C(=O)C6CCN(c7ccc(N8CCC(=O)NC8=O)cc7)CC6)CC5)c4)c3C[C@@H]1C2(F)F [Compound 172]
23 | – | 61 | Cc1nc(N2CCC(CN3CCN(C(=O)c4ccc5cc(-c6n[nH]c7c6CCC(C)(C)C7)[nH]c5c4)CC3)CC2)ccc1C1CCC(=O)NC1=O (centres unmarked) [Compound 181]
24 | – | 70 | Cc1cc(N2CCC(CN3CCN(C(=O)c4ccc5cc(-c6n[nH]c7c6CCC(C)(C)C7)[nH]c5c4)CC3)CC2)ccc1C1CCC(=O)NC1=O (centres unmarked) [Compound 182]
25 | – | 81 | CC1(C)CCc2c(-c3cc4ccc(C(=O)N5CCN(CC6CCN(c7ncc(C8CCC(=O)NC8=O)cc7F)CC6)CC5)cc4[nH]3)n[nH]c2C1 (centres unmarked) [Compound 183]
26 | – | 70 | COc1cc(N2CCC(CN3CCN(C(=O)c4ccc5cc(-c6n[nH]c7c6CCC(C)(C)C7)[nH]c5c4)CC3)CC2)ccc1C1CCC(=O)NC1=O (centres unmarked) [Compound 184]
27 | – | 87 | CC1(C)CCc2c(-c3cc4ccc(C(=O)N5CCN(CCC6CCN(c7cc(C8CCC(=O)NC8=O)ccn7)CC6)CC5)cc4[nH]3)n[nH]c2C1 (centres unmarked) [Compound 186]
28 | – | 70 | CC1(C)CCc2c(-c3cc4ccc(C(=O)N5CCN(CC6CCN(c7ncc(C8CCC(=O)NC8=O)cn7)CC6)CC5)cc4[nH]3)n[nH]c2C1 (centres unmarked) [Compound 187]
29 | – | 85 | C[C@@H](C(=O)N(C)c1cc2[nH]c(-c3n[nH]c4c3CCC(C)(C)C4)cc2cc1F)N1CCN(CC2CCN(c3ccc(C4CCC(=O)NC4=O)cn3)CC2)CC1 (some centres unmarked) [Compound 188]
30 | – | 84 | C[C@@H]1CN(c2ccc(C3CCC(=O)NC3=O)cn2)CCN1CC1CCN(C(=O)c2ccc3cc(-c4n[nH]c5c4CCC(C)(C)C5)[nH]c3c2)CC1 (some centres unmarked) [Compound 189]
31 | – | 86 | C[C@H]1CN(c2ccc(C3CCC(=O)NC3=O)cn2)CCN1CC1CCN(C(=O)c2ccc3cc(-c4n[nH]c5c4CCC(C)(C)C5)[nH]c3c2)CC1 (some centres unmarked) [Compound 190]
32 | – | 78 | CC1(C)CCc2c(-c3cc4ccc(C(=O)N5CCC(CN6CCCN(c7ccc(C8CCC(=O)NC8=O)cn7)CC6)CC5)cc4[nH]3)n[nH]c2C1 (centres unmarked) [Compound 191]
33 | – | 85 | CC1(C)CCc2c(-c3cc4ccc(C(=O)N5CCC(CN6CCc7cc(C8CCC(=O)NC8=O)ccc7C6)CC5)cc4[nH]3)n[nH]c2C1 (centres unmarked) [Compound 193]
34 | – | 64 | CC1(C)CCc2c(-c3cc4cc(C(=O)N5CCC(CN6CCc7cc(C8CCC(=O)NC8=O)ccc7C6)CC5)ccc4[nH]3)n[nH]c2C1 (centres unmarked) [Compound 194]
